This is an account of results in patent publication US20230158157A1, “POTENT AND SELECTIVE DEGRADERS OF ALK” (DANA-FARBER CANCER INSTITUTE, INC., priority 2020, published 2023).

Read-outs that look alike come from different tables or passages of the source.

Format in all cases: cell-based
One experiment deals with T1, EML4-ALK (Homo sapiens, UniProt Q9UM73).
T1 construct: endogenous in cells; host or cells: H3122 (NSCLC), single-cell clone after CRISPR knock-in of HiBit; the other entry of the earlier key: EML4 (Q9HC35, Echinoderm microtubule-associated protein-like 4)
T1 sequence (Q9UM73 with tags, fused parts or gaps): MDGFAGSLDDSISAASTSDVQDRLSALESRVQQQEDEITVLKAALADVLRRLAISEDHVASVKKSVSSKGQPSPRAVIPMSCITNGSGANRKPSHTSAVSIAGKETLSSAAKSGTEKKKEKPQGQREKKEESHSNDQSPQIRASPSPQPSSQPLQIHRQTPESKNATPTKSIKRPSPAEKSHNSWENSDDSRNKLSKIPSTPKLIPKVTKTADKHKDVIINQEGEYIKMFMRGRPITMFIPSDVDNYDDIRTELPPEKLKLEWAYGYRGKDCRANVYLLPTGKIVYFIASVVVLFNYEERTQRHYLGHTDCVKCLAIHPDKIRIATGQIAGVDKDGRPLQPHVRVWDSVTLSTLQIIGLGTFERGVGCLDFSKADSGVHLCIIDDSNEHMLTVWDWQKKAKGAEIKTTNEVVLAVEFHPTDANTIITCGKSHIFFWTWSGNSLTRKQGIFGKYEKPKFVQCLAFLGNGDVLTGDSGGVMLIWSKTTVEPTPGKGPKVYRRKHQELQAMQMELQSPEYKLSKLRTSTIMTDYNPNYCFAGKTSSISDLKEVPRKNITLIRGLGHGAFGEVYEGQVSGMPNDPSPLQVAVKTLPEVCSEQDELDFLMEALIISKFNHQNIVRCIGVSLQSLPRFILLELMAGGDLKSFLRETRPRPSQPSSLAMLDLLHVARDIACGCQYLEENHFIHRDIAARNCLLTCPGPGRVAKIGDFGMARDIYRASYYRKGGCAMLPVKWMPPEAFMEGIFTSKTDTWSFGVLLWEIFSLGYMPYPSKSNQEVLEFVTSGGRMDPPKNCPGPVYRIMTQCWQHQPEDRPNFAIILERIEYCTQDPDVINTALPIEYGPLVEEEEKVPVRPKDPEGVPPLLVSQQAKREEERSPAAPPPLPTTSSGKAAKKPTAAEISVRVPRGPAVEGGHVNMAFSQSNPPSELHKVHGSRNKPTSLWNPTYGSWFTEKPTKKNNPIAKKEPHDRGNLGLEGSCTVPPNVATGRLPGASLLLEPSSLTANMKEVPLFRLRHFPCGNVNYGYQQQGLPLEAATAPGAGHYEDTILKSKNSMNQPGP
Nature of the experiment: EML4-ALK HiBit degradation assay in CRISPR-tagged H3122 cells (Nano-Glo HiBit Lytic Detection).

The subject of another experiment is H3122 cells. Nature of the experiment: CTG. Conditions: read-out: CTG IC50.
A further experiment has as its target T2, FAK (Homo sapiens, UniProt Q05397).
T2 construct: FAK Degradation; endogenous in cells; host or cells: H3122
Kind of experiment: FAK degradation (H3122 cells). Conditions: for Dmax: NCI-H3122, Table 3.

Another experiment addresses T3, WT EML4-ALK V3 (Homo sapiens, UniProt Q9UM73).
T3 construct: expressed in transfected cells; host or cells: Ba/F3; the other entry of the earlier key: EML4 (Q9HC35, Echinoderm microtubule-associated protein-like 4)
Kind of experiment: Western blot of pALK Tyr1507, ALK and tubulin in WT EML4-ALK V3 Ba/F3 cells. The procedure:
(§1) Cells treated with DMSO, compound 96, negative control of 96 or Loratinib at indicated concentrations (nM).
(§2) The cells were collected and washed with PBS buffer. Cell lysates were prepared by using NP40 lysis buffer (Invitrogen™) supplemented with complete protease inhibitor cocktail (Roche), PhosSTOP™ phosphatase inhibitor cocktail (Roche) and PMSF (1 mM). The lysates were cleared by centrifugation and resolved using Bolt™ 4-12% Bis-Tris plus gels and Western blotted to detect proteins of interest. Antibodies to phospho-ALK^Tyr1507 and tubulin (#14678S and #3873, Cell Signaling Technologies®) were used according to the manufacturers' instructions. For Western Blot visualization, Odyssey® Clx (Li-cor) was utilized.
In general terms: In western blotting, separated proteins are transferred to a membrane and probed.

The target in the next experiment is T4, G1202R EML4-ALK V3 (Homo sapiens, UniProt Q9UM73, G1202R).
T4 construct: expressed in transfected cells; host or cells: Ba/F3; the other entry of the earlier key: EML4 (Q9HC35, Echinoderm microtubule-associated protein-like 4)
T4 sequence (Q9UM73 1058-1620 G1202R limits assumed): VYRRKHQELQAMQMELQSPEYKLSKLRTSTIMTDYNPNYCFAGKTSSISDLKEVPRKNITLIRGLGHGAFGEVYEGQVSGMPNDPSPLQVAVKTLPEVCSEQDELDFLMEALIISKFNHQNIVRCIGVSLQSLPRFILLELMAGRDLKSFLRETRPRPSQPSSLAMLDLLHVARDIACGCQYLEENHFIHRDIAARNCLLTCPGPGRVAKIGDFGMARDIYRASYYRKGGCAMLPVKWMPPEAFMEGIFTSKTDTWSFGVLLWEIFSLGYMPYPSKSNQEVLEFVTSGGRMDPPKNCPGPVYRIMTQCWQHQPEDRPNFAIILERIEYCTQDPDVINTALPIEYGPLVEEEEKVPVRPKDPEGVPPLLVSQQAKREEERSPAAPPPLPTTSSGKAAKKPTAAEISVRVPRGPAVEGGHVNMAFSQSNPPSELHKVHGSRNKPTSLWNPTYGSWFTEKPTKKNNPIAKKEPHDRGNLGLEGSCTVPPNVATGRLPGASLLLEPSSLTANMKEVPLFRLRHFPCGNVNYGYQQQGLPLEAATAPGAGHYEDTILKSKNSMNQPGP
Nature of the experiment: Western blot of pALK Tyr1507, ALK and tubulin in G1202R EML4-ALK V3 Ba/F3 cells. The procedure: as §1, §2

Setting [1] is: Table 3, H3122 cells, 16 hours, read-out: ALK Degradation (H3122 cells) DC50.
Setting [2] is: Homo sapiens, NCI-H3122, Table 3.
[3] abbreviates: NCI-H3122, Table 3, H3122 cells, 16 hours, read-out: ALK Degradation (H3122 cells) Dmax.
Setting [4] is: compared to Alectinib and Lorlatinib.

T2 sequence (Q05397 whole entry): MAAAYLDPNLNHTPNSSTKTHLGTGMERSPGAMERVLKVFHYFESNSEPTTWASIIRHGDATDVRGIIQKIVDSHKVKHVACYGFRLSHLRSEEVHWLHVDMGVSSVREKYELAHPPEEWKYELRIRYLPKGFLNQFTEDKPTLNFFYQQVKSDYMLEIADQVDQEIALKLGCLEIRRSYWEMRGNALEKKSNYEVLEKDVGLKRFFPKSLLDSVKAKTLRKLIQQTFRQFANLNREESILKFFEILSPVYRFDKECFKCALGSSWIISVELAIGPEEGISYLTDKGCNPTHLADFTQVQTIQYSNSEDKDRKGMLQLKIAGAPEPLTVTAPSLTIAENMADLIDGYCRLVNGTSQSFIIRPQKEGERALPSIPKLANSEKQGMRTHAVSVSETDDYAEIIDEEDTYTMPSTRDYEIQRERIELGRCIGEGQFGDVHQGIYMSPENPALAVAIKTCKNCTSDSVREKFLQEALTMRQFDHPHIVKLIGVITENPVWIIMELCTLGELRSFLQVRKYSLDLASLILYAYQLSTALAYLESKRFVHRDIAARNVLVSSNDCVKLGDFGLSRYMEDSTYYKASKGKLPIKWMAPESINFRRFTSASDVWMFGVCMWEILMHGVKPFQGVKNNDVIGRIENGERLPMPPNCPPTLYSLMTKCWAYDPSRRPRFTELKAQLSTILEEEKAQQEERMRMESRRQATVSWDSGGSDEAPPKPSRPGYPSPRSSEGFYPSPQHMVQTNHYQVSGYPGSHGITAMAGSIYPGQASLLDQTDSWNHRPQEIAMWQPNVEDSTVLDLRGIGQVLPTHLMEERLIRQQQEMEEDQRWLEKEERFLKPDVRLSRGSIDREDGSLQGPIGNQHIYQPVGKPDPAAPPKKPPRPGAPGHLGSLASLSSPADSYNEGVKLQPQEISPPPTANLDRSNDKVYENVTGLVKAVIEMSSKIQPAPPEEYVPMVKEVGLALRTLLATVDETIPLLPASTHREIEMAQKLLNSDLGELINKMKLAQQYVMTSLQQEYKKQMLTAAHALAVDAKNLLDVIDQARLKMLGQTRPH
T3 sequence (Q9UM73 1058-1620 limits assumed): as the sequence (Q9UM73 1058-1620 G1202R limits assumed) above, with R145G counted along it

For the molecule `COc1cc(N2CCC(NC(=O)CCCCCCCCCC(=O)N[C@H](C(=O)N3C[C@H](O)C[C@H]3C(=O)NCc3ccc(-c4scnc4C)cc3)C(C)(C)C)CC2)ccc1Nc1ncc(Cl)c(Nc2ccccc2P(C)(C)=O)n1` [SIAIS117], the “ALK Degradation (H3122 cells) Dmax” value on EML4-ALK (Table 3, H3122 cells, 16 hours) is given as 43%. The DC50 is 0.009 µM at EML4-ALK (setting [1]) and 0.01 µM on FAK (Table 3). The IC50 in the experiment on H3122 cells (Table 3) was 0.042 µM. The “FAK Degradation (H3122 cells) Dmax” value on FAK (Table 3) is 70%.

In the case of `COc1cc(CCN(C)C(=O)CCOCCC(=O)N[C@H](C(=O)N2C[C@H](O)C[C@H]2C(=O)N[C@@H](C)c2ccc(-c3scnc3C)cc2)C(C)(C)C)c(C)cc1Nc1ncc(Cl)c(Nc2ccccc2S(=O)(=O)C(C)C)n1` [compound 52, (2S,4R)-1-((S)-2-(3-(3-((4-((5-chloro-4-((2-(isopropylsulfonyl)phenyl)amino)pyrimidin-2-yl)amino)-5-methoxy-2-methylphenethyl)(methyl)amino)-3-oxopropoxy)propanamido)-3,3-dimethylbutanoyl)-4-hydroxy-N-((S)-1-(4-(4-methylthiazol-5-yl)phenyl)ethyl)pyrrolidine-2-carboxamide], the Dmax was determined as 54.8% at EML4-ALK (NCI-H3122, Table 1, first Dmax column, H3122 EML4-ALK-HiBit, 16 hours, read-out: Degradation Dmax); 49.4% on EML4-ALK (NCI-H3122, Table 1, second Dmax column, H3122 EML4-ALK-HiBit, 16 hours, read-out: Degradation Dmax); 52.1% on EML4-ALK (NCI-H3122, Table 1, average Dmax, read-out: Degradation Avg. Dmax). Moreover, the DC50 on EML4-ALK (Table 1, first DC50 column, H3122 EML4-ALK-HiBit, 16 hours, read-out: Degradation DC50) worked out at 0.214 µM; at EML4-ALK (Table 1, second DC50 column, H3122 EML4-ALK-HiBit, 16 hours, read-out: Degradation DC50), 0.107 µM; at EML4-ALK (Table 1, average DC50, read-out: Degradation Avg. DC50) it was 0.16 µM. Besides, in the experiment on H3122 cells (Homo sapiens, NCI-H3122, Table 1), the half-maximal inhibitory concentration (IC50) stood at 0.0677 µM.

`COc1cc(CCN(C)C(=O)CCOCCC(=O)N[C@H](C(=O)N2C[C@H](O)C[C@H]2C(=O)N[C@@H](C)c2ccc(-c3scnc3C)cc2)C(C)(C)C)c(C)cc1Nc1ncc(Cl)c(Nc2ccccc2P(C)(C)=O)n1` [compound 71, (2S,4R)-1-((S)-2-(3-(3-((4-((5-chloro-4-((2-(dimethylphosphoryl)phenyl)amino)pyrimidin-2-yl)amino)-5-methoxy-2-methylphenethyl)(methyl)amino)-3-oxopropoxy)propanamido)-3,3-dimethylbutanoyl)-4-hydroxy-N-((S)-1-(4-(4-methylthiazol-5-yl)phenyl)ethyl)pyrrolidine-2-carboxamide]: the Dmax worked out at 50.9% on EML4-ALK (NCI-H3122, Table 2, first Dmax column, H3122 EML4-ALK-HiBit, 16 hours, read-out: Degradation Dmax); 43.7% at EML4-ALK (NCI-H3122, Table 2, second Dmax column, H3122 EML4-ALK-HiBit, 16 hours, read-out: Degradation Dmax); 47.3% on EML4-ALK (NCI-H3122, Table 2, average Dmax, read-out: Degradation Avg. Dmax). In addition, the 50% degradation concentration (DC50) at EML4-ALK (Table 2, first DC50 column, H3122 EML4-ALK-HiBit, 16 hours, read-out: Degradation DC50) was determined as 0.543 µM; at EML4-ALK (Table 2, second DC50 column, H3122 EML4-ALK-HiBit, 16 hours, read-out: Degradation DC50), 0.15 µM; at EML4-ALK (Table 2, average DC50, read-out: Degradation Avg. DC50) it was 0.35 µM. In the experiment on H3122 cells (Homo sapiens, NCI-H3122, Table 2), the 50% inhibitory concentration (IC50) worked out at 0.222 µM.

For the molecule `COc1cc(CCNCCCCCC#Cc2cccc3c2CN(C2CCC(=O)NC2=O)C3=O)c(C)cc1Nc1ncc(Cl)c(Nc2ccccc2S(=O)(=O)C(C)C)n1` (centres unmarked) [compound 91, 3-(4-(7-((4-((5-chloro-4-((2-(isopropylsulfonyl)phenyl)amino)pyrimidin-2-yl)amino)-5-methoxy-2-methylphenethyl)amino)hept-1-yn-1-yl)-1-oxoisoindolin-2-yl)piperidine-2,6-dione], the half-inhibitory concentration (IC50) with H3122 cells (setting [2]) was 0.05 µM. At FAK, this molecule returned a Dmax of 85%. Further, it took 0.004 µM to reach half-maximal degradation on FAK (Table 3) (DC50).

Regarding `COc1cc(CCNCCCCCC#Cc2ccc3c(c2)CN(C2CCC(=O)NC2=O)C3=O)c(C)cc1Nc1ncc(Cl)c(Nc2ccccc2S(=O)(=O)C(C)C)n1` (centres unmarked) [compound 92], the half-maximal inhibitory concentration (IC50) in the experiment on H3122 cells (setting [2]) is 0.05 µM. Further, the Dmax on FAK came out at 93%. The molecule also came in with a DC50 on FAK (Table 3) of 0.004 µM.

Regarding `COc1cc(C2CCN(CCCCCC#Cc3cccc4c3C(=O)N(C3CCC(=O)NC3=O)C4=O)CC2)c(C)cc1Nc1ncc(Cl)c(Nc2ccccc2S(=O)(=O)C(C)C)n1` (centres unmarked) [compound 93, 4-(7-(4-(4-((5-chloro-4-((2-(isopropylsulfonyl)phenyl)amino)pyrimidin-2-yl)amino)-5-methoxy-2-methylphenyl)piperidin-1-yl)hept-1-yn-1-yl)-2-(2,6-dioxopiperidin-3-yl)isoindoline-1,3-dione], the Dmax at EML4-ALK (setting [3]) is 82%; on FAK, 89%. For the same molecule, the DC50 worked out at 0.049 µM on EML4-ALK (setting [1]) and 0.024 µM at FAK (Table 3). In addition, in the experiment on H3122 cells (setting [2]), the half-inhibitory concentration (IC50) was found to be 0.202 µM.

At FAK, `COc1cc(C2CCN(CCCCCC#Cc3cccc4c3CN(C3CCC(=O)NC3=O)C4=O)CC2)c(C)cc1Nc1ncc(Cl)c(Nc2ccccc2S(=O)(=O)C(C)C)n1` (centres unmarked) [compound 94, 3-(4-(7-(4-(4-((5-chloro-4-((2-(isopropylsulfonyl)phenyl)amino)pyrimidin-2-yl)amino)-5-methoxy-2-methylphenyl)piperidin-1-yl)hept-1-yn-1-yl)-1-oxoisoindolin-2-yl)piperidine-2,6-dione] showed a Dmax of 86%.

Consider `COc1cc(C2CCN(CCCCC#Cc3cccc4c3CN(C3CCC(=O)NC3=O)C4=O)CC2)c(C)cc1Nc1ncc(Cl)c(Nc2ccccc2S(=O)(=O)C(C)C)n1` (centres unmarked) [compound 95, 3-(4-(6-(4-(4-((5-chloro-4-((2-(isopropylsulfonyl)phenyl)amino)pyrimidin-2-yl)amino)-5-methoxy-2-methylphenyl)piperidin-1-yl)hex-1-yn-1-yl)-1-oxoisoindolin-2-yl)piperidine-2,6-dione], for which the maximal degradation (Dmax) was 73% on EML4-ALK (setting [3]) and 89% at FAK. Besides, the DC50 on EML4-ALK (setting [1]) and at FAK (Table 3) was 0.001 µM in each case. Further, in the experiment on H3122 cells (setting [2]), the IC50 turned out to be 0.004 µM.

Regarding `COc1cc(C2CCN(CCCC#Cc3cccc4c3CN(C3CCC(=O)NC3=O)C4=O)CC2)c(C)cc1Nc1ncc(Cl)c(Nc2ccccc2S(=O)(=O)C(C)C)n1` (centres unmarked) [compound 96, 3-(4-(5-(4-(4-((5-chloro-4-((2-(isopropylsulfonyl)phenyl)amino)pyrimidin-2-yl)amino)-5-methoxy-2-methylphenyl)piperidin-1-yl)pent-1-yn-1-yl)-1-oxoisoindolin-2-yl)piperidine-2,6-dione], the values for the greatest degradation seen (Dmax) on EML4-ALK (setting [3]) and at FAK were 79% and 92%, respectively. The DC50 on EML4-ALK (setting [1]) was 0.003 µM; at FAK (Table 3), 0.002 µM. For the same molecule, in the experiment on H3122 cells (setting [2]), the half-inhibitory concentration (IC50) came to 0.012 µM. The “ALK degradation by Western blot” value is reported as “potent degrader” on WT EML4-ALK V3 (FIG. 1A, 1C) and “potent degrader” at G1202R EML4-ALK V3 (FIG. 1B, 1D). Also, the “pALK inhibition by Western blot” value was “significantly improved pALK inhibition compared to Alectinib and Lorlatinib” at WT EML4-ALK V3 (setting [4]); “significantly improved pALK inhibition compared to Alectinib and Lorlatinib” at G1202R EML4-ALK V3 (setting [4]).

Molecule `COc1cc(C2CCN(CC#Cc3ccc4c(c3)CN(C3CCC(=O)NC3=O)C4=O)CC2)c(C)cc1Nc1ncc(Cl)c(Nc2ccccc2S(=O)(=O)C(C)C)n1` (centres unmarked) [compound 97, 3-(5-(3-(4-(4-((5-chloro-4-((2-(isopropylsulfonyl)phenyl)amino)pyrimidin-2-yl)amino)-5-methoxy-2-methylphenyl)piperidin-1-yl)prop-1-yn-1-yl)-1-oxoisoindolin-2-yl)piperidine-2,6-dione] displayed a maximal degradation (Dmax) on FAK of 80%. At FAK (Table 3), this molecule yielded a DC50 of 0.008 µM.

In general, DC50 refers to the midpoint of the concentration-degradation curve. By IC50 is commonly meant the midpoint of a concentration-inhibition curve. The term Dmax denotes the largest share of the target that was removed.
